Test results published in patent publication US20240415819A1, “MACROCYCLIC COMPOUNDS AS PROTEASOME SUBUNIT BETA TYPE-5 INHIBITORS” (Lead Discovery Center GmbH, priority 2021, published 2024).

Key:
[1] = tested on: A549 (human lung carcinoma cell line); assay: Glo assay of A549 cells (Table 3; ProteasomeGlo plating scheme); assay type: cell-based; settings: Homo sapiens; A549 cells; read-out: PGLo A549
Summary of the method: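 Cells plated in 384 wells; compound, DMSO, staurosporine transferred by ECHO; 105 min, 37° C., 5% CO2; Proteasome-Glo (Suc-LLVY-Glo) reagent added; dark 10-15 min; luminescence; IC50 nM.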

[2] = target: T1, β5 subunit of the human constitutive proteasome (CPS) (Homo sapiens, UniProt P28074); assay: β5 inhibition assay, human constitutive proteasome (Suc-LLVY-AMC); assay type: biochemical; settings: IC50 class, Suc-LLVY-AMC substrate
T1 construct: purchased Boston Biochem E-360
Description: The enzymatic activity of the β5 subunit of the human constitutive proteasome (CPS) is analyzed. In another assay, which differs from the assay of the human constitutive proteasome only in using the human immunoproteasome (IPS) the enzymatic activity of the β5 subunit of the human immunoproteasome (IPS) is analyzed. […] Inhibition is indicated as IC50 [nM] (“-”=not measured).

HT-29 cells = assay: CellTiter-Glo luminescent cell viability assay with HT-29 cells (72h incubation); assay type: cell-based, human; settings: Homo sapiens, HT-29, HT29 cells, read-out: CTG HT29
Summary of the method: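 Viability read as CellTiter-Glo luminescence after 72 h compound exposure, with 10 μM staurosporine and DMSO as control wells. Seeding 400 cells per well, compound added 24 h post-plating; IC50 from curve fitting.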

[3] = target: T2, β5 subunit of the human immunoproteasome (IPS) (Homo sapiens, UniProt P28062); assay: β5 inhibition assay, human immunoproteasome (Suc-LLVY-AMC); assay type: biochemical; settings: IC50 class, Suc-LLVY-AMC substrate
T2 construct: purchased Boston Biochem E-370
Summary of the method: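 β5 activity is read as liberated AMC fluorescence (355/460 nm) after 4 h dark reaction at RT with 22.6 μM Suc-LLVY-AMC, stopped by 1 μM bortezomib. Beforehand, 1 nM human IPS and compound sat 10 min at RT in HEPES pH 7.5 buffer containing NaCl, 0.02% SDS and DTT.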

Cc1ccc2cc1CNC(=O)[C@H](CCc1ccccc1)NC(=O)[C@@H](NC(=O)C(C)(C)C)CC(=O)N1CCCC(CCO2)C1 (stereo partly drawn) [Compound 27, N-((9S,12S)-5^4-methyl-8,11,14-trioxo-9-phenethyl-4-oxa-7,10-diaza-1(3,1)-piperidina-5(1,3)-benzenacyclotetradecaphane-12-yl)pivalamide]
IC50 [1]: < 100 nM
IC50 [2]: < 100 nM
IC50 (HT-29 cells): < 100 nM
IC50 [3]: < 100 nM

Cc1ccc2cc1CNC(=O)[C@H](CCc1ccccc1)NC(=O)[C@@H](NC(=O)OCc1ccccc1)CCC(=O)N1CCCC3(CC(C3)O2)C1 [Compound 301, benzyl ((7S,10S)-3^4-methyl-6,9,13-trioxo-7-phenethyl-2-oxa-5,8-diaza-14(3,1)-piperidina-3(1,3)-benzena-1(1,3)-cyclobutanatetradecaphane-10-yl)carbamate]
IC50 [1]: 1000 to 5000 nM
IC50 [2]: 1000 to 5000 nM
IC50 (HT-29 cells): 100 to 500 nM
IC50 [3]: 500 to 1000 nM

CC(=O)N[C@H]1CC(=O)N2CCCC(CCOc3ccc(C)c(c3)CNC(=O)C(c3cc(C)n(C)n3)NC1=O)C2 (stereo partly drawn) [Compound 561, N-((12S)-9-(1,5-dimethyl-1H-pyrazol-3-yl)-5^4-methyl-8,11,14-trioxo-4-oxa-7,10-diaza-1(3,1)-piperidina-5(1,3)-benzenacyclotetradecaphane-12-yl)acetamide]
IC50 [1]: < 100 nM
IC50 [2]: < 100 nM
IC50 (HT-29 cells): < 100 nM
IC50 [3]: < 100 nM

CC(=O)N[C@H]1CC(=O)N2CCCC(CCOc3ccc(C)c(c3)CNC(=O)C(c3cnn(-c4ccccc4)c3)NC1=O)C2 (stereo partly drawn) [Compound 559, N-((12S)-5^4-methyl-8,11,14-trioxo-9-(1-phenyl-1H-pyrazol-4-yl)-4-oxa-7,10-diaza-1(3,1)-piperidina-5(1,3)-benzenacyclotetradecaphane-12-yl)acetamide]
IC50 [1]: 100 to 500 nM
IC50 [2]: < 100 nM
IC50 (HT-29 cells): < 100 nM
IC50 [3]: < 100 nM

Cc1ccc2cc1CNC(=O)C(CCc1cnccn1)NC(=O)[C@@H](NC(=O)C1(c3ccc(N)cc3)CC1)CC(=O)N1CCCC(CCO2)C1 (stereo partly drawn) [Compound 371, 1-(4-aminophenyl)-N-((9S,12S)-5^4-methyl-8,11,14-trioxo-9-(2-(pyrazin-2-yl)ethyl)-4-oxa-7,10-diaza-1(3,1)-piperidina-5(1,3)-benzenacyclotetradecaphane-12-yl)cyclopropane-1-carboxamide]
IC50 [1]: < 100 nM
IC50 [2]: < 100 nM
IC50 (HT-29 cells): < 100 nM
IC50 [3]: < 100 nM

COC(=O)N(CC1NC(=O)[C@@H](NC(=O)OCc2ccccc2)CC(=O)N2CCCC(CCOc3ccc(C)c(c3)CNC1=O)C2)c1ccccc1 (stereo partly drawn) [Compound 513, methyl (((12R)-12-(((benzyloxy)carbonyl)amino)-5^4-methyl-8,11,14-trioxo-4-oxa-7,10-diaza-1(3,1)-piperidina-5(1,3)-benzenacyclotetradecaphane-9-yl)methyl)(phenyl)carbamate]
IC50 [1]: < 100 nM
IC50 [2]: < 100 nM
IC50 (HT-29 cells): < 100 nM
IC50 [3]: < 100 nM

Cc1ccc2cc1CNC(=O)[C@H](CCc1ccccc1)NC(=O)[C@@H](NC(=O)OCc1ccccc1)CCCC(=O)N1CCCC3(CC(C3)O2)C1 [Compound 283, benzyl ((7S,10S)-34-methyl-6,9,14-trioxo-7-phenethyl-2-oxa-5,8-diaza-15(3,1)-piperidina-3(1,3)-benzena-1(1,3)-cyclobutanapentadecaphane-10-yl)carbamate]
IC50 [1]: 1000 to 5000 nM
IC50 [2]: 500 to 1000 nM
IC50 (HT-29 cells): 100 to 500 nM
IC50 [3]: < 100 nM

Cc1ccc2cc1CNC(=O)[C@H](CCc1ccccc1)NC(=O)[C@@H](NC(=O)Cc1cc(Cl)c(N)c(Cl)c1)CC(=O)N1CCCC(CCO2)C1 (stereo partly drawn) [Compound 320, 2-(4-amino-3,5-dichlorophenyl)-N-((9S,12S)-5^4-methyl-8,11,14-trioxo-9-phenethyl-4-oxa-7,10-diaza-1(3,1)-piperidina-5(1,3)-benzenacyclotetradecaphane-12-yl)acetamide]
IC50 [1]: < 100 nM
IC50 [2]: < 100 nM
IC50 (HT-29 cells): < 100 nM
IC50 [3]: < 100 nM
